This passage reports GI50 and TGI results from PubChem BioAssay (NCI).

Holding throughout (experiment): inhibition of tumour cell growth, NCI panel, 48 h
For assay [1], the system named is 786-0 renal.
Assay [2] has as its system ACHN renal.
In assay [3] the test system is CAKI-1 renal.
Assay [4] relates to CCRF-CEM leukemia.
The subject of assay [5] is HCT-116 colon.
Assay [6] deals with NCI-H522 lung.
In assay [7] the test system is RPMI-8226 leukemia.
Assay [8] relates to RXF 393 renal.
In assay [9] the test system is SW-620 colon.
The test system of assay [10] is U251 CNS.

Each structure is given as a SMILES string. Values joined by “and” are separate entries in the source; they are usually repeats but may differ in a detail not shown here. Equal values may be shown once.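 Each compound was tested at five concentrations against cells in 96-well plates for 48 hours. Here, GI50 denotes the concentration required for 50% inhibition of growth. TGI marks complete inhibition of growth.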 Where only a bound is given, the exact number is not on record here.

Consider `CN(C)c1ccc2cc(-c3ccccc3F)c(N)nc2c1`, for which the GI50 in [1] is 2.49 µM; in assay [2], 3.8 µM; in assay [3], 3.17 µM; in [4], 2.04 µM; in [5], 0.454 µM; in [6] it was 1.35 µM. Further, the GI50 is 2.83 µM in assay [7], 2.53 µM in assay [8], 0.636 µM in [9] and 1.24 µM in assay [10]. In addition, the TGI was found to be 14.3 µM in assay [1]; 17.3 µM in assay [2]; 21 µM in assay [3]; 43.7 µM in [4]; 11 µM in assay [5]; 5.87 µM in assay [6]. Besides, the TGI amounted to 17.7 µM in [7], 10.8 µM in assay [8], 17.2 µM in assay [9] and 12.7 µM in assay [10].

Consider `CCOc1ccc(NCc2cc(OC)c(OC)c(OC)c2)cc1`, for which the TGI in assay [1] was over 100 µM; in assay [2], over 100 µM; in assay [3], over 100 µM; in assay [4], over 74.9 µM; in [5], 48.2 µM and 46 µM; in assay [6] it was 1.78 µM and 2.55 µM. The TGI in [7] is 57 µM and > 74.6 µM; in assay [9] it was over 100 µM; in [10], 19.3 µM and 22.3 µM. Also, the GI50 is 2.01 µM and 7.61 µM in assay [3]; 0.759 µM and 1.7 µM in assay [4]; 2.24 µM in assay [8].

As for `NNC(=O)CCC(=O)NC1C2CC3CC(C2)CC1C3` (configuration not stated), the TGI in assay [1], in assay [2], in [3], in [4], in assay [5] and in assay [6] was over 100 µM in each case. Further, the TGI in assay [7], in assay [8], in [9] and in assay [10] was over 100 µM throughout.

In the case of `COc1cc([C@@H]2c3cc4c(cc3[C@@H](NC(=O)c3ccccc3)C3COC(=O)[C@@H]32)OCO4)cc(OC)c1O` (some centres not stated), the TGI in assay [1] was 21.9 µM; in assay [2], 5.55 µM; in assay [3] it was over 100 µM; in [4], over 100 µM; in assay [5], 28.8 µM; in assay [6], 26.2 µM. Also, the TGI in assay [7] was 21.8 µM; in assay [8], 74.4 µM; in assay [9] it was over 100 µM; in assay [10], 13.5 µM.

In the case of `CC1S(=O)(=O)OCCOS1(=O)=O`, the TGI in assay [1], in [2], in [3], in assay [4], in assay [5] and in [6] was over 100 µM in each case. Moreover, the TGI in assay [7], in [8], in assay [9] and in assay [10] was over 100 µM in each case.

Regarding `C=C1CC[C@@H]2[C@](C)(COC(C)=O)[C@H](OC(C)=O)CC[C@@]2(C)[C@@H]1CC(Nc1ccc(S(=O)(=O)Nc2nccc(C)n2)cc1)C1=CCOC1=O` (some centres not stated), the GI50 in assay [1] was 2.27 µM; in assay [2] it was 3.64 µM; in [3] it was 3.56 µM; in assay [4], 0.073 µM; in assay [5], 1.6 µM; in assay [6], 1.26 µM. Further, the GI50 was 1.95 µM in assay [7], 2.33 µM in assay [8], 1.6 µM in assay [9] and 3.17 µM in [10]. Further, the TGI amounted to 5.06 µM in assay [1]; 13 µM in [2]; 12.5 µM in assay [3]; 3.09 µM in assay [4]; 3.56 µM in assay [5]; 3.1 µM in [6]. Moreover, the TGI in [7] was determined as 6.84 µM; in assay [8] it was 4.18 µM; in assay [9], 3.68 µM; in assay [10], 10.7 µM.

Take `C=C(C)C(=O)O[C@H]1[C@H]2[C@H](OC(=O)[C@H]2C)[C@H](O)[C@@H](C)[C@@H]2C=CC(=O)[C@]21C`: the TGI in assay [1] is 5.21 µM; in [2], 12.7 µM; in assay [3], 5.66 µM; in assay [4], 7.53 µM; in assay [5] it was 4.6 µM; in assay [6], 2.68 µM. Besides, the TGI was determined as 9.73 µM in assay [7], 4.13 µM in [8], 10.7 µM in [9] and 12.1 µM in assay [10].

Turning to `COc1cccc(C(=O)C2C(=O)N(C)CCc3ccccc32)c1OC` (configuration not stated), the TGI in [1], in assay [2], in assay [3], in [4], in [5] and in [6] was over 100 µM each time. Moreover, the TGI in assay [7], in [8], in assay [9] and in assay [10] was over 100 µM in each case.

As for `COC(=O)CNC(=O)[C@@H](OC)[C@@H]1Cc2cc3cc(OC4CC(OC5CC(O)C(O)C(C)O5)C(O)C(C)O4)c(C)c(O)c3c(O)c2C(=O)[C@H]1OC1CC(OC2CC(OC3CC(C)(O)C(O)C(C)O3)C(O)C(C)O2)C(O)C(C)O1` (some centres not stated), the GI50 in assay [1] was 0.26 µM; in assay [2], 0.19 µM; in assay [3], 0.243 µM; in assay [4], 0.186 µM; in [5], 0.0462 µM; in [6], 0.0921 µM. In addition, the GI50 was 0.116 µM in [7], 0.0877 µM in [8], 0.184 µM in assay [9] and 0.0806 µM in [10]. The TGI in assay [1] was over 50 µM; in [2] it was 6.94 µM; in assay [3], 3.84 µM; in [4], over 50 µM; in assay [5], 5.38 µM; in assay [6], 0.372 µM. The TGI in [7] is 1.38 µM; in [8] it was 0.355 µM; in assay [9], over 50 µM; in assay [10], over 50 µM.
